Patent publication US20210315898A1, “COMBINATION THERAPY FOR TREATING CANCER” (AstraZeneca AB, priority 2018, published 2021)

What was measured:
KG1a AML cells = experiment: KG1a subcutaneous xenograft model of AML, tumor volume; type: in vivo, SCID mice; conditions: FIG. 1, AZD2811 nanoparticles 100 mg/kg iv once weekly, 5-azacytidine 1 mg/kg ip twice-daily for three days, 4 rest days, 3 weekly cycles, start day 1
Experimental: (§1) KG1a: 2×10^7 KG1a AML cells in 50% matrigel were implanted subcutaneously on the left flank of adult female SCID mice. Mice were randomised into groups of 12 and dosing was started for all drugs and all combinations at day 1 (D1) following implant. AZD2811 nanoparticles were dosed at once weekly with a 20-30 s intravenous infusion at 100 mg/kg (100 mg/kg was the maximum tolerated dose in combination 5-azacytidine at 1 mg/kg; 5-azacytidine was dosed twice-daily for three days by the intraperitoneal route, followed by 4 rest days of no dosing). All drugs were given for 3 weekly cycles. Tumors were measured twice weekly by single operators, and all dosing was performed by randomised cage to minimise systematic bias. Mice reached study surival endpoint when tumors reached 1.5 cm^3.

HL-60 AML cells = experiment: HL-60 subcutaneous xenograft model of AML, tumor volume and survival; type: in vivo, SCID mice; conditions: HL-60 xenograft, FIG. 2; AZD2811 nanoparticles 25 mg/kg iv once weekly; 5-azacytidine 1 mg/kg ip twice-daily for three days, 4 rest days; 3 weekly cycles, start day 7; monotherapy compared with KG1a model
Experimental: as §1, with “HL-60: 1×10^7 HL-60 AML” for “KG1a: 2×10^7 KG1a AML”, “day 7 respectively” for “day 1 (D1)”, “at either 25” for “at 100”, “study survival” for “study surival”, “1.5 cm^3” for “1.5 cm^3.”

With `Nc1ncn([C@@H]2O[C@H](CO)[C@@H](O)[C@H]2O)c(=O)n1` [5-azacytidine, 4-amino-1-(β-D-ribofuranosyl)-1,3,5-triazin-2(1H)-one] the “efficacy (reduction in tumor volume over time)” value (KG1a AML cells) was “modestly efficacious” and the “efficacy (reduction in tumor volume over time)” value (HL-60 AML cells) was “greater efficacy”.
